Experimental data published in patent US20140057851A1, “Anti-Angiogenic Gene Therapy With Soluble VEGF Receptors -1, -2 and -3 Together With Paclitaxel Prolongs Survival Of Mice With Human Ovarian Carcinoma” (WKD Holding Oy, priority 2012, published 2014).

Columns and labels:
[1] = Clinical chemistry: plasma ALT and creatinine; details: mean ± SEM
From the text: Plasma samples were collected at 6, 13, 20 and 27 days after the gene transfer and when the mice were sacrificed. Alanine aminotransferase (ALT) and creatinine (Crea) were monitored using routine clinical chemistry assays at Kuopio University Hospital Central Laboratory. Enzyme-linked immunosorbent assays (Quantikine; R&D Systems, Minneapolis, Minn.) were used to detect the presence of human sVEGFRs in plasma samples.
Safety was judged by the assessment of the histological samples of liver, spleen, kidneys and lungs as well as by the analysis of plasma ALT and Crea levels.

[2] = test system: intratumoral microvessels of SKOV-3m tumors; assay: Microvessel and lymphatic vessel measurements in tumors (CD34, LYVE-1 immunostaining); assay type: in vivo, Balb/cA-nu female nude mice; details: result in words
Experimental: Photographs of histological sections were taken and processed using an Olympus AX70 microscope (Olympus Optical, Japan), and analySIS (Soft Imaging System, GmbH, Germany) and PhotoShop (Adobe) softwares. Microvessel density (MVD) and total microvascular area (%) of the tumors (TVA) were measured from CD34-immunostained sections using analySIS software at 100× magnification in a blinded manner (FIG. 3b). Six to ten different fields which represented maximum microvessel density areas were selected from each tumor. Necrotic areas were avoided. In addition, the total number of LYVE-1 positive lymphatic vessels per section was counted. Means±SEM of the measurements are reported.

Molecule | ALT ([1]; Day 6 after treatment) [U/l] | Crea ([1]; Day 6 after treatment) [um/l] | ALT ([1]; Day 13 after treatment) [U/l] | Crea ([1]; Day 13 after treatment) [um/l] | effect on angiogenesis by microvessel measurements [2]
N.N.O=C([O-])C1(C(=O)[O-])CCC1.[Pt+2] [Carboplatin] | 10.0 ± 1 | 14.4 ± 3 | 399 ± 209 | 4.9 ± 2 | –
Bevacizumab | 12.9 ± 3 | 7.4 ± 1 | 56.3 ± 22 | 12.4 ± 4 | did not have any effect
